Results from the OligoGym collection.
Where “and” joins values, the source holds several entries; their conditions need not be identical. Equal values may be shown once. After the bases stand the sugars from the 5' end (letter, count) and the backbone: PS all phosphorothioate, else s phosphorothioate and o phosphodiester by linkage. HELM strings list units from the 5' end as sugar, base in round brackets, then linkage (d deoxyribose, r ribose, m 2'-O-methyl, p phosphodiester). Methylation of C is not given here. [moe] = 2'-O-(2-methoxyethyl) (MOE); [cEt] = constrained ethyl (cEt); [sp] = phosphorothioate linkage; e = 2'-O-(2-methoxyethyl) (MOE); k = constrained ethyl (cEt); d = 2'-deoxy (DNA)

Experiments:
[1] = biological target: IRF5; settings: ASO
[2] = biological target: HBV; settings: ASO

Substance | target mRNA inhibition ([1]; KARPAS-229, 4 µM) | further results
ACCATTCTATGCCTTT (sugars kkdddddddddkekek, PS) | 40% | –
AGGAGTGAGACGAGCA (sugars kkddddddddkekekk, PS) | 35% | –
GGTTCTTGGACTCTCA (sugars k3 d9 k3 e1, PS) | 0% | –
AGGTTCTTGGACTCTC (sugars kkkddddddddkdkdk, PS) | 0% | –
CTTGGTCTTGACCTCC (sugars kekdddddddddeekk, PS) | 36% | –
CGGTCTTTGAGGTCTG (sugars kkkddddddddkdkdk, PS) | 57% | –
TCCAATTTTGCATTCC (sugars kddddddddddkekek, PS) | 37% | –
CACCACTGTGTACCCC (sugars kkddddddddkekekk, PS) | 0% | –
CCAATGCAACATCCAT (sugars k3 d9 k3 e1, PS) | 16% | –
GGTCTGGCCCTTTTGG (sugars k3 d10 k3, PS) | 16% | –
ACATCTCCACATCAGT (sugars k2 d9 e3 k2, PS) | 41% | –
TTATTTCTGCTCCAGG (sugars kkkddddddddkekek, PS) | 23% | –
ATAGGAGTGAGACGAG (sugars k3 d10 k3, PS) | 16% | –
CACTGACACAGGCGGA (sugars kdddddddddkekeke, PS) | 0% | –
CTTTTTGCTCTAAACC (sugars k3 d10 k3, PS) | 0% | –
ATGAGTCATGGGCTGA (sugars kdddddddddkekeke, PS) | 7% | –
GTCTGGCCCTTTTGGA (sugars kkkddddddddkekek, PS) | 0% | –
TTATTTCTGCTCCAGG (sugars kkddddddddddkeke, PS) | 26% | –
GTGTATTTCCCTGTCT (sugars k2 d9 e3 k2, PS) | 16% | –
ACCACTGTGTACCCCA (sugars k3 d10 k3, PS) | 75% and 57% | target mRNA inhibition ([1]; KARPAS-229, 0.44444 µM): 16%; target mRNA inhibition ([1]; KARPAS-229, 1.33333 µM): 41%; target mRNA inhibition ([1]; KARPAS-229, 12 µM): 65%
TTGTCTAGTGTCATGG (sugars kkkddddddddkdkdk, PS) | 36% | –
TTGCCTTCTGCAGGGA (sugars k3 d10 k3, PS) | 0% | –
ACTGACACAGGCGGAT (sugars kkddddddddddkeke, PS) | 0% | –
TCCAATTTTGCATTCC (sugars k3 d9 k3 e1, PS) | 7% | –
TTGAATTTTGTGACTG (sugars k3 d10 k3, PS) | 45% | –
AGACTTTTTGCTCTAA (sugars k3 d10 k3, PS) | 0% | –
TCACCACTGTGTACCC (sugars kkddddddddddkeke, PS) | 0% | –

Substance | target mRNA inhibition ([1]; KARPAS-229, 4 µM) | further results
ACCACTGTGTACCCCA (sugars kekdddddddddeekk, PS) | 63% and 62% | target mRNA inhibition ([1]; KARPAS-229, 0.44444 µM): 28%; target mRNA inhibition ([1]; KARPAS-229, 1.33333 µM): 45%; target mRNA inhibition ([1]; KARPAS-229, 12 µM): 77%
CCAATTTTGCATTCCA (sugars k3 d9 k3 e1, PS) | – | target mRNA inhibition ([1]; KARPAS-229, 0.44444 µM): 61% and 54% and 62%; target mRNA inhibition ([1]; KARPAS-229, 1.33333 µM): 79% and 75% and 82%; target mRNA inhibition ([1]; KARPAS-229, 12 µM): 88% and 91%
AGATGGTGTTATCTCC (sugars kdddddddddkekeke, PS) | 0% | –
AGCTTGGTCTTGACCT (sugars kddddddddddkekek, PS) | 0% | –
TTAAGGGCACAGCGCA (sugars k3 d10 k3, PS) | 0% | –
GAAGTGAGTCTCAAAC (sugars kdddddddddkekeke, PS) | 11% | –
GCATTCCATATACACA (sugars kddddddddddkekek, PS) | 39% | –
GTCTAGTGTCATGGAA (sugars kddddddddddkekek, PS) | 42% | –
CCCAATGCAACATCCA (sugars kkkdddddddddkeke, PS) | 0% | –
GAGTCATGGGCTGAGG (sugars k3 d9 k3 e1, PS) | 0% | –
CCAATTTTGCATTCCA (sugars k2 d9 e3 k2, PS) | 30% | –
GGTTCTTGGACTCTCA (sugars k3 d10 k3, PS) | – | target mRNA inhibition ([1]; KARPAS-229, 0.44444 µM): 52% and 54%; target mRNA inhibition ([1]; KARPAS-229, 1.33333 µM): 65% and 72%; target mRNA inhibition ([1]; KARPAS-229, 12 µM): 86% and 82%
TTATTTCTGCTCCAGG (sugars k3 d9 k3 e1, PS) | 28% | –
TTCTGCAGGGAGTCAG (sugars kddddddddddkekek, PS) | 4% | –
TCTTGTCTAGTGTCAT (sugars k3 d10 k3, PS) | 0% | –
CTGTCACATCTCCACA (sugars k3 d9 k3 e1, PS) | 28% | –
CATTCCATATACACAC (sugars kekdddddddddeekk, PS) | 24% | –
TCTGGCCCTTTTGGAA (sugars kdddddddddkekeke, PS) | 0% | –
ACCCAATGCAACATCC (sugars k3 d10 k3, PS) | 33% | –
GCTGTCACATCTCCAC (sugars kkdddddddddkekek, PS) | 5% | –
TGAGTCTCAAACCAGG (sugars k2 d8 e4 k2, PS) | 0% | –
TTATTTCTGCTCCAGG (sugars kkddddddddkekekk, PS) | 0% | –
TCTGATATGATACCTA (sugars k3 d2 k1 d7 k3, PS) | – | target mRNA inhibition ([1]; A-431, 0.00412 µM): 4%; target mRNA inhibition ([1]; A-431, 0.01225 µM): 8%; target mRNA inhibition ([1]; A-431, 0.03704 µM): 36%; target mRNA inhibition ([1]; A-431, 0.11111 µM): 54%; target mRNA inhibition ([1]; A-431, 0.33333 µM): 69%; target mRNA inhibition ([1]; A-431, 1 µM): 74%
CCATTCTATGCCTTTT (sugars kkdddddddddkekek, PS) | 62% and 61% | target mRNA inhibition ([1]; KARPAS-229, 0.44444 µM): 29%; target mRNA inhibition ([1]; KARPAS-229, 12 µM): 81%
ACCATTCTATGCCTTT (sugars kkkddddddddkekek, PS) | 15% | –
CTTCTGCAGGGAGTCA (sugars kkdddddddddkekek, PS) | 0% | –
GCCTTCTGCAGGGAGT (sugars k3 d10 k3, PS) | 0% | –

Substance | target mRNA inhibition ([1]; KARPAS-229, 4 µM) | further results
TTCTTGTCTAGTGTCA (sugars k3 d10 k3, PS) | 49% | –
TTCTTGGACTCTCAAG (sugars kkddddddddkekekk, PS) | 0% | –
CACATCTCCACATCAG (sugars k3 d9 k3 e1, PS) | 25% | –
GTTCTTGGACTCTCAA (sugars kkkddddddddkekek, PS) | 0% | –
CCAATGCAACATCCAT (sugars kkddddddddkekekk, PS) | 0% | –
CTTCTGCAGGGAGTCA (sugars kkddddddddddkeke, PS) | 8% | –
TGCACTGACACAGGCG (sugars kkddddddddkekekk, PS) | 0% | –
GCATTCCATATACACA (sugars kkkddddddddkdkdk, PS) | 0% | –
GTAATAGGAGTGAGAC (sugars k3 d10 k3, PS) | 11% | –
AGGAAGTGAGTCTCAA (sugars k3 d9 k3 e1, PS) | 47% | –
ACGAGTTATGGGAAGG (sugars k3 d10 k3, PS) | 74% and 73% | target mRNA inhibition ([1]; KARPAS-229, 0.44444 µM): 50%; target mRNA inhibition ([1]; KARPAS-229, 1.33333 µM): 54%; target mRNA inhibition ([1]; KARPAS-229, 12 µM): 81%
AGGAGTGAGACGAGCA (sugars kdddddddddkekeke, PS) | 0% | –
GCTTGGTCTTGACCTC (sugars k3 d9 k3 e1, PS) | 29% | –
GGTTCTTGGACTCTCA (sugars k2 d11 k3, PS) | 47% | –
CCTTCTGCAGGGAGTC (sugars kddddddddddkekek, PS) | 0% | –
GTTCTTGGACTCTCAA (sugars k3 d9 k3 e1, PS) | 37% | –
GGTCTTGACCTCCCGC (sugars kekdddddddddeekk, PS) | 33% | –
GGTCTTGACCTCCCGC (sugars k3 d9 k3 e1, PS) | 22% | –
GCATTCCATATACACA (sugars kekdddddddddeekk, PS) | 48% | –
RNA1{[moe](A)[sp].[moe](G)[sp].[moe](G)[sp].[moe](A)[sp].[moe](G)[sp].d(T)[sp].d(T)[sp].d(C)[sp].d(C)[sp].d(G)[sp].d(C)[sp].d(A)[sp].d(G)[sp].d(T)[sp].[moe](A)[sp].[moe](T)}$$$$V2.0 | – | target mRNA inhibition ([2]; HepG2, 0.07 µM): 62% and 48%
RNA1{[moe](G)[sp].[moe](A)[sp].d(A)[sp].d(C)[sp].d(T)[sp].d(G)[sp].d(G)[sp].d(A)[sp].d(G)[sp].d(C)[sp].d(C)[sp].[moe](A)[sp].[moe](C)[sp].[moe](C)[sp].[moe](A)[sp].[moe](G)}$$$$V2.0 | – | target mRNA inhibition ([2]; HepG2, 0.07 µM): 40% and 18%
RNA1{[moe](A)[sp].[moe](T)[sp].d(T)[sp].d(T)[sp].d(A)[sp].d(T)[sp].d(G)[sp].d(C)[sp].d(C)[sp].d(T)[sp].d(A)[sp].[moe](C)[sp].[moe](A)[sp].[moe](G)[sp].[moe](C)[sp].[moe](C)}$$$$V2.0 | – | target mRNA inhibition ([2]; HepG2, 0.07 µM): 36% and 25%
RNA1{[moe](G)[sp].[cEt](A)[sp].[cEt](G)[sp].d(G)[sp].d(C)[sp].d(C)[sp].d(C)[sp].d(A)[sp].d(C)[sp].d(T)[sp].d(C)[sp].d(C)[sp].d(C)[sp].[cEt](A)[sp].[cEt](T)[sp].[moe](A)}$$$$V2.0 | – | target mRNA inhibition ([2]; HepG2, 0.0092593 µM): 29%; target mRNA inhibition ([2]; HepG2, 0.0277778 µM): 63%; target mRNA inhibition ([2]; HepG2, 0.0833333 µM): 87%; target mRNA inhibition ([2]; HepG2, 0.25 µM): 85%
RNA1{[moe](C)[sp].[cEt](T)[sp].[cEt](A)[sp].d(G)[sp].d(T)[sp].d(A)[sp].d(A)[sp].d(A)[sp].d(C)[sp].d(T)[sp].d(G)[sp].d(A)[sp].d(G)[sp].[cEt](C)[sp].[cEt](C)[sp].[moe](A)}$$$$V2.0 | – | target mRNA inhibition ([2]; HepG2, 0.0092593 µM): 33%; target mRNA inhibition ([2]; HepG2, 0.0277778 µM): 49%; target mRNA inhibition ([2]; HepG2, 0.07 µM): 76% and 71%; target mRNA inhibition ([2]; HepG2, 0.0833333 µM): 71%; target mRNA inhibition ([2]; HepG2, 0.25 µM): 88%
RNA1{[moe](G)[sp].[moe](A)[sp].[moe](G)[sp].[moe](G)[sp].[moe](C)[sp].d(A)[sp].d(T)[sp].d(A)[sp].d(G)[sp].d(C)[sp].d(A)[sp].d(G)[sp].d(C)[sp].d(A)[sp].[moe](G)[sp].[moe](G)[sp].[moe](A)}$$$$V2.0 | – | target mRNA inhibition ([2]; HepG2, 0.07 µM): 47% and 43%
